# Legend:
# Assay type in all cases: in vivo
# [1] = test system: common mosquito (Culex pipiens pallens); assay: Inhibition of adult emergence of common mosquito larvae in aqueous dilute emulsion (Test Example 1); conditions: 3.5 ppm (emulsifiable concentrate diluted 28,600 times with water), 20 last-instar larvae in 100 ml, bred until emergence, repeated twice
# Protocol: The emulsifiable concentrate of each of the following present compounds prepared according to Formulation Example 1 was diluted 28,600 times with water (corresponding to 3.5 ppm). And 100 ml of each aqueous dilute emulsion thus obtained were charged in a 180-ml polyethylene cup. Then 20 last-instar larvae of common mosquito (Culex pipiens pallens) were released therein. The larvae were bred on baits until emergence to obtain percentage of inhibition of adult emergence. The test was repeated twice.
# [2] = test system: tobacco cutworm (Spodoptera litura); assay: Mortality of tobacco cutworm larvae on sprayed cabbage (Test Example 2); conditions: for mortality at 0.5 ppm: Spodoptera litura, 120 h; for Mortality (%): 0.5 ppm (diluted 200,000 times with water), 30 ml sprayed onto cabbage, 5 fourth-instar larvae, after 5 days, repeated three times
# Protocol: The emulsifiable concentrate of each of the following present compounds and controls prepared according to Formulation Example 1 was diluted 200,000 times with water (corresponding to 0.5 ppm). And 30 ml of each aqueous dilute solution thus obtained were sprayed onto cabbage cultivated in a plastic cup on a turn table, which cabbage had been planted one month before. After air-drying, 5 fourth-instar larvae of tobacco cutworm (Spodoptera litura) were released thereon, and after 5 days, the dead and alive were counted for mortality. This test was repeated three times.
# [3] = test system: diamond-back moth (Plutella xylostella) (field-strain); assay: Hatching of diamond-back moth eggs laid on dipped germinated Japanese radish (Test Example 3); conditions: 1.25 ppm (diluted 80,000 times with water); radish dipped 30 seconds before egg laying; hatching counted after 5 days; repeated twice; four grades
# Protocol: Two pieces of germinated Japanese radish which had been sowed 5 or 6 days before were dipped for 30 seconds in the aqueous dilute solution. After air-drying for about 1 hour, these germinated radish were put in a cage wherein a large number of adult diamond-back moth (Plutella xylostella) (field-strain) of an age of 1-3 days after the emergence were released, and they were allowed to lay eggs. When the number of eggs per germinated radish reached 100 to 150, the radish were taken out of the cage and each two pieces thereof were put in a polyethylene cup of 5.5 cm in diameter. After 5 days, the number of hatching was counted to obtain percentage of hatching. The test was repeated twice.
SMILES,inhibition at 3.5 ppm [1] [%],mortality at 0.5 ppm [2] [%],Percentage of hatching [3],Mortality (%) [2] [%]
O=C(NC(=O)c1ccccc1Cl)Nc1ccc(OC(F)(F)C(Cl)Cl)cc1F [(3)],100,100,A (A: 0%),–
O=C(NC(=O)c1c(F)cccc1F)Nc1ccc(OC(F)(F)C(F)C(F)(F)F)cc1F (stereo not shown) [(7)],100,100,A (A: 0%),–
O=C(NC(=O)c1c(F)cccc1F)Nc1ccc(OC(F)(F)C(Cl)Cl)cc1F [(2)],100,93,A (A: 0%),–
O=C(NC(=O)c1c(F)cccc1F)Nc1ccc(OC(F)(F)C(F)(F)Br)cc1F [(1)],100,100,A (A: 0%),–
O=C(NC(=O)c1ccccc1Cl)Nc1ccc(OC(F)(F)C(F)OC(F)(F)C(F)(F)C(F)(F)F)cc1F (stereo not shown) [(10)],100,100,A (A: 0%),–
"O=C(NC(=O)c1c(F)cccc1F)Nc1ccc(Cl)cc1 [(A), reference compound]",–,–,D (D: 21% or more),13
O=C(NC(=O)c1ccccc1Cl)Nc1ccc(OC(F)(F)C(F)OC(F)(F)F)cc1F (stereo not shown) [(12)],100,100,A (A: 0%),–
O=C(NC(=O)c1c(F)cccc1F)Nc1ccc(OC(F)(F)C(Br)Br)cc1F [(4)],100,100,A (A: 0%),–
"O=C(NC(=O)c1ccccc1Cl)Nc1ccc(OC(F)(F)F)cc1 [(B), reference compound]",–,–,D (D: 21% or more),0
O=C(NC(=O)c1c(F)cccc1F)Nc1ccc(OC(F)(F)C(F)Cl)cc1F (stereo not shown) [(5)],100,93,A (A: 0%),–
O=C(NC(=O)c1ccccc1Cl)Nc1ccc(OC(F)(F)C(F)C(F)(F)F)cc1F (stereo not shown) [(8)],100,100,A (A: 0%),–
O=C(NC(=O)c1c(F)cccc1F)Nc1ccc(OC(F)(F)C(F)OC(F)(F)F)cc1F (stereo not shown) [(11)],100,100,A (A: 0%),–
O=C(NC(=O)c1ccccc1Cl)Nc1ccc(OC(F)(F)C(F)Cl)cc1F (stereo not shown) [(6)],100,100,A (A: 0%),–
O=C(NC(=O)c1c(F)cccc1F)Nc1ccc(OC(F)(F)C(F)OC(F)(F)C(F)(F)C(F)(F)F)cc1F (stereo not shown) [(9)],100,100,A (A: 0%),–

# Source: patent EP0337600A2, “Benzoylurea derivative, process for producing the same, insecticide containing the same, reaction intermediate of the same and process for producing the intermediate” (priority 1988, dated 1989)
